Measurements from patent US20130225614A1, “4-AZOLYLAMINOQUINAZOLINE DERIVATIVES AND METHODS OF USE THEREOF” (Ambit Biosciences Corporation, priority 2010, published 2013).

Key:
JAK3 = biological target: T1, JAK3 (Homo sapiens, UniProt P52333); experiment: Competition binding assay, Kd against JAK3
T1 construct: made in house; host or cells: T7 phage display or HEK-293 cells (alternatives; not specified per kinase)
T1 sequence (P52333 1-1124): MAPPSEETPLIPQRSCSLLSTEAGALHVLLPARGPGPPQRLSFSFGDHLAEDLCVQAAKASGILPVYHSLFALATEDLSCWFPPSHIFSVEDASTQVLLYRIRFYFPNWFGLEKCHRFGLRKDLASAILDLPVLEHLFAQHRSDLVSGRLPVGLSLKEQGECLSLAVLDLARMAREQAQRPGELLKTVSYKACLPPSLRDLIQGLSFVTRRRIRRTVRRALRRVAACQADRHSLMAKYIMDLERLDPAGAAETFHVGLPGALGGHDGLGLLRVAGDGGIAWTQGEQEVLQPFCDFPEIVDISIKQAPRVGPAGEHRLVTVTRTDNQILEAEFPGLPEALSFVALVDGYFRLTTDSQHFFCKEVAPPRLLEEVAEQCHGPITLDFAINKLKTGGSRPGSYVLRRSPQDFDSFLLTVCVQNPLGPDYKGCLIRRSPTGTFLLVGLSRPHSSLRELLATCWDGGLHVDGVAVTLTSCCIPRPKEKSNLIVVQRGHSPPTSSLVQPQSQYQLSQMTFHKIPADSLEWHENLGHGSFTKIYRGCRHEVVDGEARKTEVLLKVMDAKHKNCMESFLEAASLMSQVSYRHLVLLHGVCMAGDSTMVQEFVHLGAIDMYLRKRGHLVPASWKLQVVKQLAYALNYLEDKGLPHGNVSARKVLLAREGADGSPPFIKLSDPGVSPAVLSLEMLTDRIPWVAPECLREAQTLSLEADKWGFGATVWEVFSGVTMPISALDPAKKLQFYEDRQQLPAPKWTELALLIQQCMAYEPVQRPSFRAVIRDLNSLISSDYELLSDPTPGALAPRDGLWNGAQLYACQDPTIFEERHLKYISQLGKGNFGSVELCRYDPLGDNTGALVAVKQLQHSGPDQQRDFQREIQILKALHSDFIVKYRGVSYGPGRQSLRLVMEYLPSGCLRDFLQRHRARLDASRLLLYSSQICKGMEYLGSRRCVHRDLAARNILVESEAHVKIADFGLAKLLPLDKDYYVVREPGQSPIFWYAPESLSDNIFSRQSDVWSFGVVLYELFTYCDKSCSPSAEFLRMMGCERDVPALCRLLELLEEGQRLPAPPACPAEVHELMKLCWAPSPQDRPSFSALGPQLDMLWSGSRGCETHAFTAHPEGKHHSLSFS
Experimental: (§1) Competition binding assays used herein were developed, validated and performed as described in Fabian et al., Nature Biotechnology 2005, 23, 329-336. Kinases were produced as fusions to T7 phage (See, Fabian et al. or WO04/015142) or alternatively, the kinases were expressed in HEK-293 cells and subsequently tagged with DNA for PCR detection (See, WO08/005,310). For the binding assays, streptavidin-coated magnetic beads were treated with biotinylated affinity ligands for 30 min at rt to generate affinity resins. The liganded beads were blocked with excess biotin and washed with blocking buffer (SeaBlock (Pierce), 1% BSA, 0.05% Tween 20, 1 mM DTT) to remove unbound ligand and to reduce non-specific binding. Binding reactions were assembled by combining kinase, liganded affinity beads, and test compounds in 1× binding buffer (20% SeaBlock, 0.17×PBS, 0.05% Tween 20, 6 mM DTT). Test compounds were prepared as 100× stocks in DMSO and rapidly diluted into the aqueous environment. DMSO was added to control assays lacking a test compound. Primary screen interactions were performed in polypropylene 384-well plates in a final volume of 34 μL, while Kd determinations were performed in polystyrene 96-well plates in a final volume of 135 μL. The assay plates were incubated at room temperature with shaking for 1 hour, long enough for binding reactions to reach equilibrium, and the affinity beads were washed extensively with wash buffer (1×PBS, 0.05% Tween 20) to remove unbound protein. The beads were then resuspended in elution buffer (1×PBS, 0.05% Tween 20, 2 μM non-biotinylated affinity ligand) and incubated at room temperature with shaking for 30 min. The kinase concentration in the eluates was measured by quantitative PCR. Each kinase was tested individually against each compound. Kds were determined using eleven serial threefold dilutions. A selectivity score, which is a quantitative measure of selectivity of a compound against a panel of enzymes, may be calculated for a compound by dividing the number of enzymes for which a compound meets a set criteria, (for example, a binding constant of 100 nM or less), by the total number of enzymes tested.

[1] = tested on: distinct kinases tested excluding mutant variants, typically 359 or 386 kinases; experiment: Kinase selectivity in competition binding assays (S10 score; kinases within 100-fold of JAK2 Kd); details: compound at 10 μM; fraction of kinases with inhibition of 90% or greater
Experimental: as §1
In certain embodiments, the compounds provided herein bind to JAK2 kinase with higher specificity as compared to non-mutant and non-JAK family kinases. For certain compounds provided herein, binding constants for less than 10 non-mutant and non-JAK family kinases are within 100-fold of the binding constant for JAK2 kinase for compounds provided herein. For certain compounds provided herein, binding constants for less than 8 non-mutant and non-JAK family kinases are within 100-fold of the binding constant for JAK2 kinase for compounds provided herein. […]

[2] = tested on: GM-CSFR/JAK2/STAT5 pathway; experiment: CSTF-1 cell-based reporter assay (beta-lactamase reporter, GM-CSF stimulated); details: Homo sapiens; csTF-1 cells, GM-CSF at 2 ng/mL, 4 hours; read-out: Cell Assay: CS TF-1 reporter assay IC50
Experimental: CSTF-1 cells are derived from the human erythroleukemia cell line that is growth dependent on GM-CSF and has an intact GM-CSFR/JAK2/STAT5 pathway. The cell line contains stably integrated beta-lactamase reporter gene under the control of the […] (irf 1) response element recognized by the activated transcription factor STATS. csTF-1 cells (Invitrogen K1219) were washed with assay media (97% OPTIMEM/0.5% dialyzed FBS/0.1 mM NEAA/1 mM Na pyr/P/S) and seeded in the same media at 5×10^5 cell/mL in T150 flask. After 16 hour incubation, cells were seeded at 2×10^5 cell/well in 50 μl volume, into Costar, clear bottom, 96-well assay plates. Serial dilutions of compounds were added to the plates with final DMSO concentration at 0.5% and GM-CSF at 2 ng/mL and the plates were then incubated at […] and 5% CO2 for 4 hours. The plates were brought to room temperature before adding Substrate Mixture according to manufacturer's protocol (Invitrogen, Catalog #K1085). The assay plates containing the substrate mixture were incubated in the dark at room temperature for 2 hours. Blue and green fluorescence was measured with excitation at 409 nm and emission at 460 nm (for blue) and excitation at 409 nm and emission at 530 nm (for green) using Spectra Max Gemini EM.

JAK2 = biological target: T2, JAK2 (Homo sapiens, UniProt O60674); experiment: Competition binding assay, Kd against JAK2
T2 construct: made in house; host or cells: T7 phage display or HEK-293 cells (alternatives; not specified per kinase)
T2 sequence (O60674 whole entry): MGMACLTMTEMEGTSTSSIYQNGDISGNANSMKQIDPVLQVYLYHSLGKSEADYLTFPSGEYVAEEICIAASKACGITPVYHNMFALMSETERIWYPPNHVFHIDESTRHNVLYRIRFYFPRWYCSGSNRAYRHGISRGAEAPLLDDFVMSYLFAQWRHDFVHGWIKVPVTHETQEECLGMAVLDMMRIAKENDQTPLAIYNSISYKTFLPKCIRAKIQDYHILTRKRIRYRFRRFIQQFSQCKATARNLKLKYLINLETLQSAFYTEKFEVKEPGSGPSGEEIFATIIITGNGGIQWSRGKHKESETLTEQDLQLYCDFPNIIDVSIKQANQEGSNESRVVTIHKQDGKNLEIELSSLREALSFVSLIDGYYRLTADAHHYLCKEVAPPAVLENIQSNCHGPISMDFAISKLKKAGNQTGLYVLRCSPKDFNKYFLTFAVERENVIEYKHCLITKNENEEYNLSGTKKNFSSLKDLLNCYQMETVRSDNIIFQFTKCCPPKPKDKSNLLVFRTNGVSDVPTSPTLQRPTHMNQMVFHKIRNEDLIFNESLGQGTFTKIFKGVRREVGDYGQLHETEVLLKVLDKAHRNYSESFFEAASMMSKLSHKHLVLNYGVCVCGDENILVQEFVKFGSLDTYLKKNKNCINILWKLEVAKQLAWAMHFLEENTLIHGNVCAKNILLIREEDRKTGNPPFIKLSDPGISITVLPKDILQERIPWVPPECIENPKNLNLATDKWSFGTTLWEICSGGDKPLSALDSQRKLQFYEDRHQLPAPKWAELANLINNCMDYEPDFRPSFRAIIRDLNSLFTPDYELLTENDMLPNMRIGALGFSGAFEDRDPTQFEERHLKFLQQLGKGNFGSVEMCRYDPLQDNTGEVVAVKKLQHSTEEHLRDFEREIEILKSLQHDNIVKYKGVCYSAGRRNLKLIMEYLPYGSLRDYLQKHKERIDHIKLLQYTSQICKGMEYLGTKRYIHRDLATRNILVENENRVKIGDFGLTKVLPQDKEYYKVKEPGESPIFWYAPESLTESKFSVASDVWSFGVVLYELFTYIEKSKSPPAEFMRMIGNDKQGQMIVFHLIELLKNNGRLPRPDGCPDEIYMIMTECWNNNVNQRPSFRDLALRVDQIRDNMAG
Experimental: as §1

Cn1cnc(Nc2nc(C(O)c3ccc(F)cc3)nc3ccccc23)c1 (racemic) [Example 2, (R,S)-(4-fluorophenyl)(4-(1-methyl-1H-imidazol-4-ylamino)quinazolin-2-yl)methanol]
Kd (JAK3): 10 to 100 nM | S-Score: S(10) at 10 μM [1]: A (A ≦ 0.3) | IC50 [2]: 100 to 500 nM | Kd (JAK2): ≤ 10 nM

OC(c1ccc(F)cc1)c1nc(Nc2c[nH]cn2)c2ccccc2n1 (racemic) [Example 3, (R,S)-(4-(1H-imidazol-4-ylamino)quinazolin-2-yl)(4-fluorophenyl)methanol]
Kd (JAK3): > 100 nM | S-Score: S(10) at 10 μM [1]: A (A ≦ 0.3) | IC50 [2]: > 500 nM | Kd (JAK2): 10 to 50 nM

OC(c1ccc(F)cc1)c1nc(Nc2cscn2)c2ccccc2n1 (racemic) [Example 4, (R,S)-(4-fluorophenyl)(4-(thiazol-4-ylamino)quinazolin-2-yl)methanol]
Kd (JAK3): > 100 nM | S-Score: S(10) at 10 μM [1]: A (A ≦ 0.3) | IC50 [2]: > 500 nM | Kd (JAK2): 10 to 50 nM

Cc1cnc(Nc2nc(C(O)c3ccc(F)cc3)nc3ccccc23)s1 (racemic) [Example 5, (R,S)-(4-fluorophenyl)(4-(5-methylthiazol-2-ylamino)quinazolin-2-yl)methanol]
Kd (JAK3): > 100 nM | S-Score: S(10) at 10 μM [1]: A (A ≦ 0.3) | IC50 [2]: > 500 nM | Kd (JAK2): ≤ 10 nM
